Reference: US20230295157A1, “3-(1H-IMIDAZOL-2-YL)-2,3,8,8A-TETRAHYDROINDOLIZIN-5(1H)-ONE DERIVATIVES USEFUL AS FACTOR XIA INHIBITORS” (JANSSEN PHARMACEUTICA NV, priority 2020, published 2023)
Like-named read-outs stand apart in the source and are kept apart here.

Legend:
Factor XIa = Factor XIa (Homo sapiens (Human), UniProt P03951); test: Factor XIa inhibition assay (FLINT) utilizing a fluorophore-quencher pair peptide substrate; format: biochemical; details: 30 min preincubation, kinetic reads over 30 min, read-out: FXIa Kin Inh IC50
Factor XIa, sequence (P03951 388-625): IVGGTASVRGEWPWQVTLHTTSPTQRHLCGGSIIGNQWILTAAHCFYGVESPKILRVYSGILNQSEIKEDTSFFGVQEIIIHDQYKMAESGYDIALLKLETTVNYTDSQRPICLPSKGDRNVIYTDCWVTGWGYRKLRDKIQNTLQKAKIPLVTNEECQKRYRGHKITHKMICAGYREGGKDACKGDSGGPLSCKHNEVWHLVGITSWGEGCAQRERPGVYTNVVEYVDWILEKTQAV
Factor XIa, sequence (P03951 19-387 partner): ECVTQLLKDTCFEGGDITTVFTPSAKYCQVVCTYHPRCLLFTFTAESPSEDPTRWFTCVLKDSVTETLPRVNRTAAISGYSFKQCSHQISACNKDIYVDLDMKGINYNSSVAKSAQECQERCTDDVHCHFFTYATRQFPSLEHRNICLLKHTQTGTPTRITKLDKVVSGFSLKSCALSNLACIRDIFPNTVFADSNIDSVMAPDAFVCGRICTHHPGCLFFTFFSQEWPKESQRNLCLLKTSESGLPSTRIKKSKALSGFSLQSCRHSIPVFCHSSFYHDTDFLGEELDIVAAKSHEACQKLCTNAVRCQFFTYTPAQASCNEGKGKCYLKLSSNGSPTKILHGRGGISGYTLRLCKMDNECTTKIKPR
Procedure, shortened: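 FXIa ([…]) preincubated 30 min with compound (11-point 3-fold dilution, top 100 nM, 2% DMSO), then 15 μM quenched FXI Arg146-based peptide added; Tris pH 7.5, CaCl2, BSA, CHAPS. Fluorescence 485/520 nm read kinetically every 5 min over 30 min at RT; IC50 by 4-parameter fit.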

human plasma kallikrein = human plasma kallikrein (Homo sapiens (Human), UniProt P03952); test: Kallikrein inhibition assay (FLINT) utilizing a quenched AMC peptide substrate; format: biochemical; details: 30 min preincubation, read-out: Kallikrein Kin Inh IC50
human plasma kallikrein, sequence (P03952 391-638): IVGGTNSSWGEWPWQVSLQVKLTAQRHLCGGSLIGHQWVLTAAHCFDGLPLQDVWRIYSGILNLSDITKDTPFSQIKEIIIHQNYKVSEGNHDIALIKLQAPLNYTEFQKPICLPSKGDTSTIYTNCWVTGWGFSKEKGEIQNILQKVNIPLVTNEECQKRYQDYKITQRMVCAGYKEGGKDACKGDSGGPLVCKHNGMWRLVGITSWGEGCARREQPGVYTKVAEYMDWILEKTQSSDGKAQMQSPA
human plasma kallikrein, sequence (P03952 20-390 partner): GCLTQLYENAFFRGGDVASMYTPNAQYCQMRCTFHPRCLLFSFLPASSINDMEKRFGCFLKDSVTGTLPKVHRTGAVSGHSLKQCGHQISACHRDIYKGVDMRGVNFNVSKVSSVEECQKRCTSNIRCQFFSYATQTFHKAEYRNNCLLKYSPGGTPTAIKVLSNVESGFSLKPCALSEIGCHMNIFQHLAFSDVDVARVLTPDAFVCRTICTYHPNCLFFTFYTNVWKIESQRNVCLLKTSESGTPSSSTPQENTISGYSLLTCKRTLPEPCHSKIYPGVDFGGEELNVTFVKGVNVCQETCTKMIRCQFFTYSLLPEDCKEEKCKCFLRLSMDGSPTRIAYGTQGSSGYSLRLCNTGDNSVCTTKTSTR
Procedure, shortened: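 Enzyme (2 nM final) pre-incubated 30 min at room temperature with compound (11-point, 3-fold, top 1 μM, 2% DMSO), then 50 μM Z-Gly-Pro-Arg-AMC added in Tris pH 7.5 buffer. Kinetic fluorescence 340/440 nm every 5 min over 30 min; IC50 from 4-parameter logistic fit.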

[1] = 5Fam-KLTRAETV-K5Tamra substrate 15 μM
[2] = kinetic reads over 30 min, Z-Gly-Pro-Arg-AMC substrate 50 μM

| Compound | IC50 (Factor XIa; [1]) [nM] | IC50 (human plasma kallikrein; [2]) [µM] | IC50 (human plasma kallikrein; μM, kinetic reads) [µM] | IC50 (Factor XIa; 5Fam-[…]-K5Tamra substrate 15 μM) [nM] |
| --- | --- | --- | --- | --- |
| CC(=O)Nc1cnc(C(F)(F)F)cc1-c1cnc([C@@H]2CC[C@H]3CC(c4c(-n5cnnn5)ccc(Cl)c4F)=CC(=O)N32)[nH]1 [Example 244, N-[4 [2-[(3S,8aS)-7-[3-Chloro-2-fluoro-6-(tetrazol-1-yl)phenyl]-5-oxo-2,3,8,8a-tetrahydro-1H-indolizin-3-yl]-1H-imidazol-5-yl]-6-(trifluoromethyl)-3-pyridyl]acetamide] | > 100 | 0.73 |  |  |
| CC(=O)Nc1cnc(C(F)(F)F)cc1-c1cnc([C@@H]2CC[C@@H]3CC(c4c(-n5cnnn5)ccc(Cl)c4F)=CC(=O)N32)[nH]1 [Example 245, N-[4-[2-[(3S,8aR)-7-[3-Chloro-2-fluoro-6-(tetrazol-1-yl)phenyl]-5-oxo-2,3,8,8a-tetrahydro-1H-indolizin-3-yl]-1H-imidazol-5-yl]-6-(trifluoromethyl)-3-pyridyl]acetamide] | 76.8 | 0.558 |  |  |
| CC(F)(F)C(=O)Nc1cnccc1-c1c[nH]c([C@@H]2CCC3CC(c4c(-n5cnnn5)ccc(Cl)c4F)=CC(=O)N32)n1 (stereo partly drawn) [Example 246, N-[4-[2-[(3S)-7-[3-Chloro-2-fluoro-6-(tetrazol-1-yl)phenyl]-5-oxo-2,3,8,8a-tetrahydro-1H-indolizin-3-yl]-1H-imidazol-4-yl]-3-pyridyl]-2,2-difluoro-propanamide] | 1.8 | 0.141 |  |  |
| Cn1ncc(NC(=O)C2CC2)c1-c1c[nH]c([C@@H]2CC[C@H]3CC(c4c(-n5cnnn5)ccc(Cl)c4F)=CC(=O)N32)n1 [Example 247, N-[5-[2-[(3S,8aS)-7-[3-Chloro-2-fluoro-6-(tetrazol-1-yl)phenyl]-5-oxo-2,3,8,8a-tetrahydro-1H-indolizin-3-yl]-1H-imidazol-4-yl]-1-methyl-pyrazol-4-yl]cyclopropanecarboxamide] | 0.7 | 0.0156 |  |  |
| O=C(Nc1ccsc1-c1c[nH]c([C@@H]2CCC3CC(c4c(-n5cnnn5)ccc(Cl)c4F)=CC(=O)N32)n1)C1CC1 (stereo partly drawn) [Example 248, N-[2-[2-[(3S)-7-[3-Chloro-2-fluoro-6-(tetrazol-1-yl)phenyl]-5-oxo-2,3,8,8a-tetrahydro-1H-indolizin-3-yl]-1H-imidazol-4-yl]-3-thienyl]cyclopropanecarboxamide] | 1 | 0.0015 |  |  |
| CCOC(=O)Nc1ccncc1-c1c[nH]c([C@@H]2CCC3CC(c4c(-n5cnnn5)ccc(Cl)c4F)=CC(=O)N32)n1 (stereo partly drawn) [Example 251, Ethyl N-[3-[2-[(3S)-7-[3-chloro-2-fluoro-6-(tetrazol-1-yl)phenyl]-5-oxo-2,3,8,8a-tetrahydro-1H-indolizin-3-yl]-1H-imidazol-4-yl]-4-pyridyl]carbamate] | 32.2 | 0.226 |  |  |
| O=C(Nc1ccncc1-c1c[nH]c([C@@H]2CCC3CC(c4c(-n5cnnn5)ccc(Cl)c4F)=CC(=O)N32)n1)C1CC1 (stereo partly drawn) [Example 252, N-[3-[2-[(3S)-7-[3-Chloro-2-fluoro-6-(tetrazol-1-yl)phenyl]-5-oxo-2,3,8,8a-tetrahydro-1H-indolizin-3-yl]-1H-imidazol-4-yl]-4-pyridyl]cyclopropanecarboxamide] | 0.6 | 0.0045 |  |  |
| Nc1ccncc1-c1c[nH]c([C@@H]2CCC3CC(c4c(-n5cnnn5)ccc(Cl)c4F)=CC(=O)N32)n1 (stereo partly drawn) [Example 253, (3S)-3-[4-(4-Amino-3-pyridyl)-1H-imidazol-2-yl]-7-[3-chloro-2-fluoro-6-(tetrazol-1-yl)phenyl]-2,3,8,8a-tetrahydro-1H-indolizin-5-one] | > 100 |  | > 1 |  |
| CCOC(=O)Nc1ncccc1-c1c[nH]c([C@@H]2CC[C@@H]3CC(c4c(-n5cnnn5)ccc(Cl)c4F)=CC(=O)N32)n1 [Example 254, Ethyl N-[3-[2-[(3S,8aR)-7-[3-chloro-2-fluoro-6-(tetrazol-1-yl)phenyl]-5-oxo-2,3,8,8a-tetrahydro-1H-indolizin-3-yl]-1H-imidazol-4-yl]-2-pyridyl]carbamate] | 16.7 | 0.15 |  |  |
| Cn1cnc(-c2c[nH]c([C@@H]3CCC4CC(c5c(-n6cnnn6)ccc(Cl)c5F)=CC(=O)N43)n2)n1 (stereo partly drawn) [Example 255, (3S)-7-[3-Chloro-2-fluoro-6-(tetrazol-1-yl)phenyl]-3-[4-(1-methyl-1,2,4-triazol-3-yl)-1H-imidazol-2-yl]-2,3,8,8a-tetrahydro-1H-indolizin-5-one] | > 100 |  | > 1 |  |
| [2H]C([2H])([2H])C(=O)Nc1cnccc1-c1c[nH]c([C@@H]2CCC3CC(c4c(-n5cnnn5)ccc(Cl)c4F)=CC(=O)N32)n1 (stereo partly drawn) [Example 256, N-[4-[2-[(3S)-7-[3-Chloro-2-fluoro-6-(tetrazol-1-yl)phenyl]-5-oxo-2,3,8,8a-tetrahydro-1H-indolizin-3-yl]-1H-imidazol-4-yl]-3-pyridyl]-2,2,2-trideuterio-acetamide] |  | 0.0675 |  | 1.4 |
| CNc1n[nH]c2cc(-c3cnc([C@@H]4CCC5CC(c6c(-n7cnnn7)ccc(Cl)c6F)=CC(=O)N54)[nH]3)ccc12 (stereo partly drawn) [Example 258, (3S)-7-[3-Chloro-2-fluoro-6-(tetrazol-1-yl)phenyl]-3-[5-[3-(methylamino)-1H-indazol-6-yl]-1H-imidazol-2-yl]-2,3,8,8a-tetrahydro-1H-indolizin-5-one] | 0.3 | 0.0008 |  |  |
| Cn1cc(-c2c[nH]c([C@@H]3CCC4CC(c5c(-n6cnnn6)ccc(Cl)c5F)=CC(=O)N43)n2)c(NC(=O)C2CC2)n1 (stereo partly drawn) [Example 259, N-[4-[2-[(3S)-7-[3-Chloro-2-fluoro-6-(tetrazol-1-yl)phenyl]-5-oxo-2,3,8,8a-tetrahydro-1H-indolizin-3-yl]-1H-imidazol-4-yl]-1-methyl-pyrazol-3-yl]cyclopropanecarboxamide] | 2.7 | 0.021 |  |  |
| CNc1ncccc1-c1cnc([C@@H]2CCC3CC(c4c(-n5cnnn5)ccc(Cl)c4F)=CC(=O)N32)[nH]1 (stereo partly drawn) [Example 260, (3S)-7-[3-Chloro-2-fluoro-6-(tetrazol-1-yl)phenyl]-3-[4-[2-(methylamino)-3-pyridyl]-1H-imidazol-2-yl]-2,3,8,8a-tetrahydro-1H-indolizin-5-one] | > 100 | 0.462 |  |  |
| O=C1C=C(c2c(-n3cnnn3)ccc(Cl)c2F)CC2CC[C@@H](c3ncc(-c4ccc5[nH]c(=O)ccc5c4)[nH]3)N12 (stereo partly drawn) [Example 261, 6-[2-[(3S)-7-[3-Chloro-2-fluoro-6-(tetrazol-1-yl)phenyl]-5-oxo-2,3,8,8a-tetrahydro-1H-indolizin-3-yl]-1H-imidazol-5-yl]-1H-quinolin-2-one] | 0.3 | 0.0007 |  |  |
| CCOC(=O)Nc1ncccc1-c1c[nH]c([C@@H]2CC[C@H]3CC(c4c(-n5cnnn5)ccc(Cl)c4F)=CC(=O)N32)n1 [Example 262, Ethyl N-[3-[2-[(3S,8aS)-7-[3-chloro-2-fluoro-6-(tetrazol-1-yl)phenyl]-5-oxo-2,3,8,8a-tetrahydro-1H-indolizin-3-yl]-1H-imidazol-4-yl]-2-pyridyl]carbamate] | 45.8 | 0.15 |  |  |
| CCOC(=O)Nc1cnccc1-c1c[nH]c([C@@H]2CC[C@H]3CC(c4c(-n5cnnn5)ccc(Cl)c4F)=CC(=O)N32)n1 [Example 263, Ethyl N-[4-[2-[(3S,8aS)-7-[3-chloro-2-fluoro-6-(tetrazol-1-yl)phenyl]-5-oxo-2,3,8,8a-tetrahydro-1H-indolizin-3-yl]-1H-imidazol-4-yl]-3-pyridyl]carbamate] | 2.3 | 0.0337 |  |  |
| COc1ccc(-c2c[nH]c([C@@H]3CC[C@H]4CC(c5c(-n6cnnn6)ccc(Cl)c5F)=CC(=O)N43)n2)c(NC(=O)C2CC2)c1 [Example 264, N-[2-[2-[(3S,8aS)-7-[3-Chloro-2-fluoro-6-(tetrazol-1-yl)phenyl]-5-oxo-2,3,8,8a-tetrahydro-1H-indolizin-3-yl]-1H-imidazol-4-yl]-5-methoxy-phenyl]cyclopropanecarboxamide] | 1.1 | 0.0021 |  |  |
| CNc1n[nH]c2cc(-c3cnc([C@@H]4CC[C@H]5CC(c6c(-n7cnnn7)ccc(Cl)c6F)=CC(=O)N54)[nH]3)ccc12 [Example 265, (3S,8aS)-7-[3-Chloro-2-fluoro-6-(tetrazol-1-yl)phenyl]-3-[5-[3-(methylamino)-1H-indazol-6-yl]-1H-imidazol-2-yl]-2,3,8,8a-tetrahydro-1H-indolizin-5-one] | 0.4 | 0.001 |  |  |
| COc1ccc(-c2c[nH]c([C@@H]3CC[C@@H]4CC(c5c(-n6cnnn6)ccc(Cl)c5F)=CC(=O)N43)n2)c(NC(=O)C2CC2)c1 [Example 266, N-(2-(2-((3S,8aR)-7-(3-Chloro-2-fluoro-6-(1H-tetrazol-1-yl)phenyl)-5-oxo-1,2,3,5,8,8a-hexahydroindolizin-3-yl)-1H-imidazol-4-yl)-5-methoxyphenyl)cyclopropanecarboxamide] | 0.9 | 0.0011 |  |  |
| O=C(Nc1ccncc1-c1c[nH]c([C@@H]2CC[C@H]3CC(c4c(-n5cnnn5)ccc(Cl)c4F)=CC(=O)N32)n1)C1CC1 [Example 267, N-[3-[2-[(3S,8aS)-7-[3-Chloro-2-fluoro-6-(tetrazol-1-yl)phenyl]-5-oxo-2,3,8,8a-tetrahydro-1H-indolizin-3-yl]-1H-imidazol-4-yl]-4-pyridyl]cyclopropanecarboxamide] | 1 | 0.009 |  |  |
